Laboratory results reported in patent US12421206B2, “Aryl-n-aryl derivatives for treating a RNA virus infection” (ABIVAX, priority 2018, dated 2025).

System: RSV A2
Experiment: RSV inhibition (cytopathic effect inhibition) using Viral ToxGlo assay in HEp-2 cells
Type: cell-based
Details: human respiratory syncytial virus, RSV A2, MOI 0.5, HEp-2 cells, 72 h p.i.
Method: Protocol for Screening Antiviral Compounds for RSV Inhibition and Cytotoxicity Using Viral ToxGlo Assay
HEp-2 cells were maintained in Eagle's minimum essential medium (EMEM) with Earle's BSS adjusted to contain 2 mM L-glutamine, 10% fetal bovine serum, 100 U/ml penicillin and 100 μg/ml streptomycin. For the purposes of the screening assay they were grown to 90% confluency, trypsinized and recovered. The trypsin was neutralised with cell culture media and cells were centrifuged at 150×g for 5 minutes before discarding the supernatant and resuspending cell pellet in assay media (EMEM with Earle's BSS adjusted to contain 2 mM L-glutamine, 2% fetal bovine serum and 100 U/ml penicillin and 100 μg/ml streptomycin). The cells were seeded into white clear-bottomed cell culture plates at a density of 1.5×10^4 cells/well in 50 μl and 4×10^3 cells/well in 25 μl for 96 well plates and 384 well plates respectively. For the media/background control column assay media only was added. Cell plates were placed in a humid chamber and incubated overnight at 37° C./5% CO2. After overnight incubation cells were checked for confluency and healthy appearance.
Test articles were made up at 10× test concentration in a maximum DMSO concentration of 10% (final assay concentration maximal 1% DMSO) and added to the cell plates in volumes of 10 μl for 96 well plates and 5 μl for 384 well plates. For cell control and virus control wells the test article solvent only was added. Virus or assay media for cytotoxicity test wells and media/cell control wells was added immediately after test articles at an MOI of 0.5, 40 or 20 μl for 96 and 384 well plates respectively. Virus suspension was prepared by thawing RSV A2 frozen stocks and diluting to the required concentration of plaque forming units in assay media on ice.
Cell plates were further incubated inside a humid chamber for 72 h p.i at 37° C./5% CO2. After the incubation period cells were observed under the microscope to check for characteristic cytopathic effect in virus control wells and healthy cells in the cell control wells. After plates were adjusted to room temperature 20/40 μl Viral ToxGlo (Promega) was added to each well of the 384/96 well cell plates. Plates were incubated at room temperature, protected from light on a plate rocker for 20 minutes before measuring the luminescence on a spectrophotometer (Biotek Synergy HTX).
RSV inhibition was calculated as percentage of cytopathic effect inhibition relative to the virus control and cytotoxicity as percentage of cell survival relative to cell control wells. This allowed EC50 values to be calculated for each test article where a virus inhibition or cytotoxic dose response was identified.

Going from `CN(c1cccc(C(=O)NCCC2CCCCC2)c1)c1ccc(OCc2ccccn2)cc1C1CC1` [Compound 111, N-(2-cyclohexylethyl)-3-({2-cyclopropyl-4-[(pyridin-2-yl)methoxy]phenyl}(methyl)amino)benzamide] to `O=C(NCCC1CCCCC1)c1cc(Nc2ccc(OCc3ccccn3)cc2C2CC2)ccn1` [Compound 117, N-(2-cyclohexylethyl)-4-({2-cyclopropyl-4-[(pyridin-2-yl)methoxy]phenyl}amino)pyridine-2-carboxamide], the EC50 rises from 0.062 µM to 0.098 µM (1.6-fold). The first is the more potent here.

Compared with `CC(C)CCc1cn(-c2cccc(Nc3ccc(OCc4ccccn4)cc3C3CC3)c2)nn1` [Compound 112, 2-cyclopropyl-N-{3-[4-(3-methylbutyl)-1H-1,2,3-triazol-1-yl]phenyl}-4-[(pyridin-2-yl)methoxy]aniline], `CC(C)CCc1nc(-c2cccc(Nc3ccc(OCc4ccccn4)cc3C3CC3)c2)no1` [Compound 127, 2-cyclopropyl-N-{3-[5-(3-methylbutyl)-1,2,4-oxadiazol-3-yl]phenyl}-4-[(pyridin-2-yl)methoxy]aniline] is 2.2-fold higher in EC50: 0.067 µM for the first, 0.148 µM for the second.

Going from `O=C(NCC1CCCC1)c1ccccc1Nc1ccc(OCc2ccccn2)cc1C1CC1` [Compound 113, N-(cyclopentylmethyl)-2-({2-cyclopropyl-4-[(pyridin-2-yl)methoxy]phenyl}amino)benzamide] to `CC(C)CCNC(=O)c1ccccc1Nc1ccc(OCc2ccccn2)cc1C1CC1` [Compound 123, 2-({2-cyclopropyl-4-[(pyridin-2-yl)methoxy]phenyl}amino)-N-(3-methylbutyl)benzamide], the EC50 rises from 0.069 µM to 0.12 µM (1.7-fold).

Going from `c1ccc(COc2ccc(Nc3cccc(OCCCC4CCCCC4)c3)c(N3CCOCC3)c2)cc1` [Compound 114, 4-(benzyloxy)-N-[3-(3-cyclohexylpropoxy)phenyl]-2-(morpholin-4-yl)aniline] to `O=S(=O)(CCCC1CCCCC1)c1ccccc1Nc1ccc(OCc2ccccc2)cc1C1CC1` [Compound 122, 4-(benzyloxy)-N-[2-(3-cyclohexylpropanesulfonyl)phenyl]-2-cyclopropylaniline], the EC50 rises from 0.071 µM to 0.116 µM (1.6-fold). The first is the more potent here.

`O=C(NCCC1CCCCC1)c1ccccc1Nc1ccc(OCc2ccccc2)cc1C1CC1` [Compound 115, 2-{[4-(benzyloxy)-2-cyclopropylphenyl]amino}-N-(2-cyclohexylethyl)benzamide] and `O=C(NCCC(F)(F)F)c1ccccc1Nc1ccc(OCc2ccccn2)cc1C1CC1` [Compound 120, 2-({2-cyclopropyl-4-[(pyridin-2-yl)methoxy]phenyl}amino)-N-(3,3,3-trifluoropropyl)benzamide] are within 1.5-fold of each other in EC50: 0.083 µM for the first, 0.11 µM for the second.

`O=C(CCC1CCCCC1)Nc1cc(Nc2ccc(OCc3ccccc3)cc2C(F)(F)F)ccc1F` [Compound 116, N-(5-{[4-(benzyloxy)-2-(trifluoromethyl)phenyl]amino}-2-fluorophenyl)-3-cyclohexylpropanamide] and `O=C(CCC1CCCCC1)Nc1cc(Nc2ccc(OCc3ccc(F)cc3)cc2C(F)(F)F)ccc1F` [Compound 125, 3-cyclohexyl-N-[2-fluoro-5-({4-[(4-fluorophenyl)methoxy]-2-(trifluoromethyl)phenyl}amino)phenyl]propanamide] are within 1.5-fold of each other in EC50: 0.093 µM for the first, 0.13 µM for the second.

`O=S(=O)(NCCC1CCCCC1)c1cccc(Nc2ccc(OCc3ccccc3)cc2C(F)(F)F)c1` [Compound 124, 3-{[4-(benzyloxy)-2-(trifluoromethyl)phenyl]amino}-N-(2-cyclohexylethyl)benzene-1-sulfonamide] and `c1ccc(COc2ccc(Nc3cccc(-c4noc(CCC5CCCCC5)n4)c3)c(C3CC3)c2)nc1` [Compound 129, N-{3-[5-(2-cyclohexylethyl)-1,2,4-oxadiazol-3-yl]phenyl}-2-cyclopropyl-4-[(pyridin-2-yl)methoxy]aniline] are within 1.5-fold of each other in EC50: 0.126 µM for the first, 0.175 µM for the second.

For `CC(C)NC(=O)c1c(C#N)cccc1Nc1ccc(OCc2ccccc2)cc1C1CC1` [Compound 128, 2-{[4-(benzyloxy)-2-cyclopropylphenyl]amino}-6-cyano-N-(propan-2-yl)benzamide], the EC50 was 0.156 µM.
